Measured values reported in patent US6608086B2, “Dihydropyridines and new uses thereof” (Synaptic Pharmaceutical Corporation, priority 1993, dated 2003).
Like-named read-outs stand apart in the source and are kept apart here.

Assays:
[1] = target: T1, α1A Human Adrenergic Receptor (Homo sapiens, UniProt P25100); assay: Radioligand binding, [3H]prazosin, cloned human α1A adrenergic receptor; conditions: [3H]prazosin
T1 construct: The entire coding region of α1A (1719 bp); expressed in transfected cells
T1 sequence (P25100 1-572): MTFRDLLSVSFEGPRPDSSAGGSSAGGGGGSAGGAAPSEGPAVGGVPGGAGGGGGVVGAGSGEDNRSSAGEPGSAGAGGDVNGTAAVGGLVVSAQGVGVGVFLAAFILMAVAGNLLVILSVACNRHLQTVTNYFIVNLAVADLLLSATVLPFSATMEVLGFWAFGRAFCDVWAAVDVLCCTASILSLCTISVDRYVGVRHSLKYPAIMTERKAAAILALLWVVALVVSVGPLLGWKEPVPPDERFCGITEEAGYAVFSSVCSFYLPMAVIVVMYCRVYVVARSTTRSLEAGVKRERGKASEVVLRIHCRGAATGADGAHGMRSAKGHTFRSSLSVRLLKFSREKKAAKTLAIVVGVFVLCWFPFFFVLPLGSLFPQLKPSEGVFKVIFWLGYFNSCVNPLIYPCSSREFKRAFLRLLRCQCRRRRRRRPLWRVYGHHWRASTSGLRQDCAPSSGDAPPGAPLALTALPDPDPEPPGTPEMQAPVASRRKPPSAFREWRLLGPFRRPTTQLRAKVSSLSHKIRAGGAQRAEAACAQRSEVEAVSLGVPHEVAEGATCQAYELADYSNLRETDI
Protocol: (§1) The protocols for these experiments are given below.
(§2) These cell lines were prepared by transfecting the cloned cDNA or cloned genomic DNA or constructs containing both genomic DNA and cDNA encoding the human α-adrenergic receptors as follows:
α1A Human Adrenergic Receptor:
The cells were grown, in a controlled environment (37° C., 5% CO2), as monolayers in Dulbecco's modified Eagle's Medium (GIBCO, Grand Island, N.Y.) containing 25 mM glucose and supplemented with 10% bovine calf serum, 100 units/ml penicillin g, and 100 μg/ml streptomycin sulfate.
(§3) Radioligand Binding Assays:
(§4) Transfected cells from culture flasks were scraped into 5 ml of 5 mM Tris-HCl, 5 mM EDTA, pH 7.5, and lysed by sonication. The cell lysates were centrifuged at 1000 rpm for 5 min at 4° C., and the supernatant was centrifuged at 30,000× g for 20 min at 4° C. The pellet was suspended in 50 mM Tris-HCl, 1 mM MgCl2, and 0.1% ascorbic acid at pH 7.5. Binding of the α1 antagonist [^3H]prazosin (0.5 nM, specific activity 76.2 Ci/mmol) to membrane preparations of LM(tk−) cells was done in a final volume of 0.25 ml and incubated at 37° C. for 20 min. Nonspecific binding was determined in the presence of 10 μM phentolamine. The reaction was stopped by filtration through GF/B filters using a cell harvester.

[2] = target: T2, α1B Human Adrenergic Receptor (Homo sapiens, UniProt P35368); assay: Radioligand binding, [3H]prazosin, cloned human α1B adrenergic receptor
T2 construct: The entire coding region of α1B (1563 bp); expressed in transfected cells
T2 sequence (P35368 1-520): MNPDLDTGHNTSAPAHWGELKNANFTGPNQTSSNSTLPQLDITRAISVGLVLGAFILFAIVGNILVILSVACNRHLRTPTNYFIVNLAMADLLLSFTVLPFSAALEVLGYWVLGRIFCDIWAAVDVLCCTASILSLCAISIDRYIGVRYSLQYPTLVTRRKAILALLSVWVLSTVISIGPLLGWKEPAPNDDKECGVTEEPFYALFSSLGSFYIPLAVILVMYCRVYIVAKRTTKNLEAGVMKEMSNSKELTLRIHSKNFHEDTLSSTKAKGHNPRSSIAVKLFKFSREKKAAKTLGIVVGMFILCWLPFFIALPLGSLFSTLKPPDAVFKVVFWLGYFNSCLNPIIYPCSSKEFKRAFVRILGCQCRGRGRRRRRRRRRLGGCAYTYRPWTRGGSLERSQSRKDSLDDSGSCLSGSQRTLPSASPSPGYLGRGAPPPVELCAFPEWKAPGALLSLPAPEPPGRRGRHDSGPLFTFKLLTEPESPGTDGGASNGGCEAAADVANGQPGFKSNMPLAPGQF
Protocol: as §1, §2
α1B Human Adrenergic Receptor:
The construct involved ligating the full-length containing EcoRI brainstem cDNA fragment from λ ZapII into the expression vector. Stable cell lines were selected as described above.
as §3, §4

[3] = target: T3, α1C Human Adrenergic Receptor (Homo sapiens, UniProt P35348); assay: Radioligand binding, [3H]prazosin, cloned human α1C adrenergic receptor
T3 construct: The entire coding region of α1C (1401 bp); expressed in transfected cells
T3 sequence (P35348 1-466): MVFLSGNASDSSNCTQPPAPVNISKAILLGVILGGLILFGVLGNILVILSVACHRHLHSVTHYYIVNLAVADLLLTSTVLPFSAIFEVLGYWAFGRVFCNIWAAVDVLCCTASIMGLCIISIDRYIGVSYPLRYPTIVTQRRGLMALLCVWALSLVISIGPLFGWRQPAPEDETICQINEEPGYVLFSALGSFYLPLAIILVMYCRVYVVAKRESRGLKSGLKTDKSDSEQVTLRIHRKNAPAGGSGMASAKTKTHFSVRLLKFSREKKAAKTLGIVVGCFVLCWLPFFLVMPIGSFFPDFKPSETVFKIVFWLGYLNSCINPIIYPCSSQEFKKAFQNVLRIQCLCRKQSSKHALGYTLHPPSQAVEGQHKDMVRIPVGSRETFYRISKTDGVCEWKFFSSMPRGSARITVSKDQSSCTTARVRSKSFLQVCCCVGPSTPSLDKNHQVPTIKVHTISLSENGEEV
Protocol: as §1, §2
α1C Human Adrenergic Receptor:
The construct involved ligating three partial overlapping fragments: a 5′, 0.6 kb HincII genomic clone, a central 1.8 EcoRI hippocampal cDNA clone, and a 3′ 0.6Kb PstI genomic clone. The hippocampal cDNA fragment overlaps with the 5′ and 3′ genomic clones so that the HincII and PstI sites at the 5′ and 3′ ends of the cDNA clone, respectively, were utilized for ligation. This full-length clone was cloned into the KpnI site of the expression vector, using the 5′ and 3′ KpnI sites of the fragment, derived from vector (i.e., pBluescript) and 3′-untranslated sequences, respectively. Stable cell lines were selected as described above.
as §3, §4

[4] = cloned human α1A receptor, LM(tk−) cell membranes, read-out: pKi alpha-1 1a (converted)
[5] = cloned human α1B receptor, LM(tk−) cell membranes, read-out: pKi alpha-1 1b (converted)
[6] = cloned human α1C receptor, LM(tk−) cell membranes, read-out: pKi alpha-1 1c (converted)
[7] = cloned human receptor, LM(tk-) cell membranes, mean, read-out: PKi alpha-1 1a (converted)
[8] = cloned human receptor, LM(tk-) cell membranes, mean, read-out: PKi alpha-1 1b (converted)
[9] = cloned human receptor, LM(tk-) cell membranes, mean, read-out: PKi alpha-1 1c (converted)

SMILES | Ki [1, 4] | Ki [2, 5] | Ki [3, 6] | melting point | Ki [1, 7] | Ki [2, 8] | Ki [3, 9] | Ki ([1]; PKi alpha-1 1a, cloned human receptor, LM(tk-) cell membranes, mean) | Ki ([2]; PKi alpha-1 1b, cloned human receptor, LM(tk-) cell membranes, mean) | Ki ([3]; PKi alpha-1 1c, cloned human receptor, LM(tk-) cell membranes, mean)
CCNC(=O)C1=C(CC)NC(COCCN=[N+]=[N-])=C(C(=O)NCCCN2CCC(c3ccccc3)(c3ccccc3)CC2)C1c1ccc([N+](=O)[O-])cc1 (centres unmarked) [Example 145, 2-((2-Azidoethyl)oxy)methyl-6-methyl-6-ethyl-5-(N-ethyl) carboxamido-1,4-dihydro-4-(4-nitro)phenyl-3-(N-(3-(4,4-diphenylpiperidin-1-yl)propyl))carboxamidopyridine] | 380 nM | 324 nM | 6.17 nM | 82 to 87 °C | – | – | – | – | – | –
CC1=C(C(=O)O)C(c2ccc([N+](=O)[O-])cc2)C(C(=O)NCCCN2CCC(c3ccccc3)(c3ccccc3)CC2)=C(COCCN=[N+]=[N-])N1 (centres unmarked) [Example 153, 2-((2-Azidoethyl)oxy)methyl-1,4-dihydro-6-methyl-4-(4-nitro) phenyl-3-(N-(3-(4,4-diphenylpiperidin-1-yl)propyl))carboxamidopyridine-5-carboxylic acid] | 1910 nM | 380 nM | 24 nM | 135 °C (dec.) | – | – | – | – | – | –
CC1=C(C(N)=O)C(c2ccc([N+](=O)[O-])cc2)C(C(=O)NCCCN2CCC(c3ccccc3)(c3ccccc3)CC2)=C(COCCN=[N+]=[N-])N1 (centres unmarked) [Example 154, 2-((2-Azidoethyl)oxy)methyl-5-carboxamido-1,4-dihydro-6-methyl-4-(4-nitro)phenyl-3-(N-(3-(4,4-diphenylpiperidin-1-yl)propyl))carboxamidopyridine] | 112 nM | 87.1 nM | 1.82 nM | 90 to 95 °C (dec.) | – | – | – | – | – | –
CNC(=O)C1=C(C)NC(C)=C(C(=O)NCCCN2CCC(C(=O)OC)(c3ccccc3)CC2)C1c1ccc2c(c1)OCCO2 (centres unmarked) [Example 164, 4-(3,4-Ethylenedioxyphenyl)-1,4-Dihydro-3-{N-[3-(4-methoxycarbonyl-4-phenylpiperidin-1-yl)propyl]}carboxamido-2,6-dimethyl-5-[(N-methyl)carboxamido]pyridine] | – | – | – | 101 to 104 °C | 2950 nM | 1780 nM | 22.9 nM | – | – | –
CC1=C(C(N)=O)C(c2ccc([N+](=O)[O-])cc2)C(C(=O)NCCCN2CCC(c3ccccc3)(c3ccccc3)CC2)=C(CCCCCN)N1 (centres unmarked) [Example 169, 2-(5-Aminopentyl)-5-carboxamido-1,4-dihydro-6-methyl-4-(4-nitrophenyl)-3-{N-[3-(4,4-diphenylpiperidin-1-yl)propyl]}carboxamidopyridine] | – | – | – | 75 to 78 °C | – | – | – | 513 nM | 229 nM | 7.24 nM
CCOC(=O)C1(c2ccccc2)CCN(CCCNC(=O)C2=C(CC)NC(CC)=C(C(=O)NC)C2c2ccc([N+](=O)[O-])cc2)CC1 (centres unmarked) [Example 181, 2,6-Diethyl-1,4-dihydro-3-{N-[3-(4-ethoxycarbonyl-4-phenylpiperidin-1-yl)propyl]}carboxamido-5-(N-methyl) carboxamido-4-(4-nitrophenyl)pyridine] | – | – | – | 95 to 97 °C | 3470 nM | 1070 nM | 4.07 nM | – | – | –
CCOC(=O)C1(c2ccccc2)CCN(CCCNC(=O)C2=C(COCCN=[N+]=[N-])NC(CC)=C(C(=O)O)C2c2ccc([N+](=O)[O-])cc2)CC1 (centres unmarked) [Example 189] | – | – | – | 109 to 110 °C | 4680 nM | 1410 nM | 26.3 nM | – | – | –
CCOC(=O)C1(c2ccccc2)CCN(CCCNC(=O)C2=C(COCCN=[N+]=[N-])NC(CC)=C(C(N)=O)C2c2ccc([N+](=O)[O-])cc2)CC1 (centres unmarked) [Example 190, 2-[(2-Azidoethoxy)methyl]-5-carboxamido-3-{N-[3-(4-ethoxycarbonyl-4-phenylpiperidin-1-yl)propyl]}carboxamido-1,4-dihydro-6-ethyl-4-(4-nitrophenyl)pyridine] | – | – | – | 63 to 64 °C | 1350 nM | 708 nM | 5.37 nM | – | – | –
CCOC(=O)C1(c2ccccc2)CCN(CCCNC(=O)C2=C(COCCN=[N+]=[N-])NC(CC)=C(C(=O)NC)C2c2ccc([N+](=O)[O-])cc2)CC1 (centres unmarked) [Example 191, 2-[(2-Azidoethoxy)methyl]-3-{N-[3-(4-ethoxycarbonyl-4-phenyl-piperidin-1-yl)propyl]}carboxamido-1,4-dihydro-6-ethyl-5-(N-methyl)carboxamido-4-(4-nitrophenyl)pyridine] | – | – | – | 67 to 68 °C | 1950 nM | 1350 nM | 8.13 nM | – | – | –
CCOC(=O)C1(c2ccccc2)CCN(CCCNC(=O)C2=C(COCCN=[N+]=[N-])NC(CC)=C(C(=O)OC)C2c2ccc([N+](=O)[O-])cc2)CC1 (centres unmarked) [Example 195, 2-[(2-Azidoethoxy)methyl]-3-{N-[3-(4-ethoxycarbonyl-4-phenylpiperidin-1-yl)propyl]}carboxamido-1,4-dihydro-6-ethyl-5-methoxycarbonyl-4-(4-nitrophenyl)pyridine] | – | – | – | 56 to 57 °C | 288 nM | 129 nM | 7.08 nM | – | – | –
CC1=C(C(N)=O)C(c2ccc([N+](=O)[O-])cc2)C(C(=O)NCCCN2CCC(C#N)(c3ccccc3)CC2)=C(COCCN=[N+]=[N-])N1 (centres unmarked) [Example 214, 2-((2-Azidoethyl)oxy)methyl-5-carboxamido-3-(N-(3-(4-cyano-4-phenylpiperidin-1-yl)propyl)) carboxamido-1,4-dihydro-6-methyl-4-(4-nitro)phenylpyridine] | – | – | – | 81 °C (dec.) | 2570 nM | 776 nM | 6.17 nM | – | – | –
